Laboratory results published in patent US20130217694A1, “METHOD OF REDUCING THE SEVERITY OF INFLAMMATORY DERMATOLOGICAL CONDITIONS” (Allergan, Inc.., priority 2003, published 2013).

Legend:
[1] = target: T1, human α-2A receptor (Homo sapiens, UniProt P08913); conditions: percent efficacy relative to brimonidine
T1 sequence (P08913 1-465): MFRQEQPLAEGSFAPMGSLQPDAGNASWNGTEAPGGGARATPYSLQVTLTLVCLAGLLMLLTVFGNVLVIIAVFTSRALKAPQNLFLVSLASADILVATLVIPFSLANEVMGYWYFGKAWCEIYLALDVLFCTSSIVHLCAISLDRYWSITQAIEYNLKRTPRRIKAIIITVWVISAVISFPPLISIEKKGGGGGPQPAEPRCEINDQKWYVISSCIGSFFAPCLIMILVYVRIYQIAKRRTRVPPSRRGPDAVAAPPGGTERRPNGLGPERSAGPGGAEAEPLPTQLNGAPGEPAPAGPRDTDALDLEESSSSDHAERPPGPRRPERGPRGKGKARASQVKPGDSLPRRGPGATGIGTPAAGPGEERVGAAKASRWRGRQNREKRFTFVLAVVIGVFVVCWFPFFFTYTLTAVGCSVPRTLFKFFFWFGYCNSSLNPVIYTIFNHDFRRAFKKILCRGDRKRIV
Protocol: The human α-2A and α-2C receptor supernatants were added, in varying amounts, to naive PC12 cells, which were then incubated for 48 hours. The transduced cell populations were replated at a lower density and grown in media containing 100 ug/ml puromycin.
Intracellular cAMP measurement was performed as follows. PC12 cells stably expressing the human α-2A or human α-2C adrenergic receptors were plated in 96-well poly-D-lysine coated plates at a density of 30,000 cells per well in 100 μl DMEM supplemented with 10% horse serum, 5% heat inactivated fetal bovine serum, 1% antibiotic-antimycotic and 100 μg/ml puromycin. Cells were grown overnight at 37° C. and 5% CO2. Cells were dosed by adding an equal volume of media containing IBMX (to a final concentration of 1 mM), forskolin (to a final concentration of 10 μM) and the appropriate drug dilution (to a final concentration of between 10^−5 M and 10^−12 M). After a 10 minute incubation, the media was aspirated and the cells lysed with 200 μl lysis buffer (Amersham Biosciences; Piscataway, N.J.). Plates were stored at −20° C. for up to 24 hours prior to assay. Intracellular cAMP was determined using the Biotrak cAMP enzyme immunoassay system (Amersham Biosciences) according to the manufacturer's instructions. Plates were read on a plate reader at 450 nm.

[2] = system: mice; test: NMDA-induced tactile hypersensitivity in mice; assay type: in vivo, mouse; conditions: result in words
Protocol: Spinal drug injections were performed as follows. […] Briefly, a sterile 30-gauge ½ inch needle attached to a microsyringe was inserted between the L5 and L6 vertebrae. The mouse was held firmly by the pelvic girdle in one hand, while the syringe was held in the other hand at an angle of approximately 20° above the vertebral column. The needle was inserted into the tissue to one side of the L6 spinous process, into the groove between the spinous and transverse processes. The needle angle was decreased to about 10°, and the needle slowly advanced forward into the intervertebral space until a pop was felt and there was a visible serpentine tail movement. Compounds were slowly injected in the subarachnoid space in a volume of 5 μl. Each compound was tested at multiple doses. The minimal efficacious dose was used for all subsequent experiments.
Sensitivity to light touch was quantified by scoring the response of mice to light stroking of their flanks with a small paintbrush, which is not normally painful. […] Statistical calculations of significance for in vivo studies were done using a two-tailed Students t-test.

[3] = target: T2, bovine α-1A adrenergic receptor (Bos taurus, UniProt P18130); test: Intracellular Ca+2 response in HEK293 cells expressing bovine α-1A receptor; assay type: cell-based; conditions: for bovine α1A % E: percent efficacy relative to phenylephrine; for agonist activity at the α-1A receptor: result in words
T2 sequence (P18130 1-466): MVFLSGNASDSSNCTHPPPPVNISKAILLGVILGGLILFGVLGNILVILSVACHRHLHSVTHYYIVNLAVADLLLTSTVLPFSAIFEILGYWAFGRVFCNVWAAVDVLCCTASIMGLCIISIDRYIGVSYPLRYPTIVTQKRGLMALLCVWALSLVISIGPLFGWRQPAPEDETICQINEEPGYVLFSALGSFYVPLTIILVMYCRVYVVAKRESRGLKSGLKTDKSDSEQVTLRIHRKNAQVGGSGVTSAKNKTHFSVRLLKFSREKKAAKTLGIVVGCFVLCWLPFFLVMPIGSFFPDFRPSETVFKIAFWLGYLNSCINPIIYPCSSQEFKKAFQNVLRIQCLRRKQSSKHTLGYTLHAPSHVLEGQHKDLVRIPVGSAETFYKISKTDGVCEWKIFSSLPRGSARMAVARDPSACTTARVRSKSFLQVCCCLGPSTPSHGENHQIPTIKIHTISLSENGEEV
Protocol: The bovine α-1A and hamster α-1B receptor supernatants were added, in varying amounts, to naive HEK293 cells, which were then incubated for 48 hours. The transduced cell populations were replated at a lower density and grown in media containing 0.25 ug/ml puromycin. […] Receptor density was measured in a prazosin radioligand binding assay.
Intracellular Ca^+2 responses were measured as follows in HEK293 cells stably expressing either the bovine α-1A or hamster α-1B adrenergic receptor. Between 40,000 to 50,000 cells were plated per well in 96-well poly-D-lysine coated plates in 0.2 ml DMEM containing 10% heat-inactivated fetal calf serum, 1% antibiotic-antimycotic and 0.25 μg/ml puromycin one day prior to use. Cells were washed twice with HBSS supplemented with 10 mM HEPES, 2.0 mM CaCl2 and 2.5 mM probenicid, and subsequently incubated at 37° C. for 60 minutes with 4 μM Fluo-4 (Molecular Probes; Eugene, Oreg.). The extracellular dye was washed from the plates twice prior to placing the plates in the fluorometric imaging plate reader (FLIPR; Molecular Devices; Sunnyvale, Calif.). Ligands were diluted in HBSS and aliquoted into a 96-well microplate. Drugs were tested over the concentration range of 0.64 nM to 10,000 nM. Data for Ca^+2 responses were obtained in arbitrary fluorescence units.

SMILES | human α2A % E [1] [%] | inhibition of NMDA-induced tactile hypersensitivity ([2]; wildtype mice) | inhibition of NMDA-induced tactile hypersensitivity ([2]; α-2A knockout mice) | inhibition of NMDA-induced tactile hypersensitivity ([2]; α-2C knockout mice) | bovine α1A % E [3] [%] | agonist activity at the α-1A receptor [3]
Brc1c(NC2=NCCN2)ccc2nccnc12 [Brimonidine, 5-bromo-6-(2-imidazolin-2-ylamino)quinoxaline] | 91 | complete inhibition of tactile hypersensitivity | neither clonidine nor brimonidine inhibited | complete inhibition of tactile hypersensitivity | 15 | weak activity
Clc1cccc(Cl)c1N=C1NCCN1 [Clonidine] | 94 | complete inhibition of tactile hypersensitivity | neither clonidine nor brimonidine inhibited | complete inhibition of tactile hypersensitivity | 62 | partial agonists
